Test results as given in ChEMBL document CHEMBL1909046, “DrugMatrix in vitro pharmacology data”.

What was measured:
[1] = biological target: Cytochrome P450 3A4 (Homo sapiens, UniProt P08684); details: bti-tn-5b1-4
[2] = biological target: T1, Cysteinyl leukotriene receptor 1 (Homo sapiens, UniProt Q9Y271); assay type: cell membranes, Membrane; details: cho-k1
T1 sequence (Q9Y271 whole entry): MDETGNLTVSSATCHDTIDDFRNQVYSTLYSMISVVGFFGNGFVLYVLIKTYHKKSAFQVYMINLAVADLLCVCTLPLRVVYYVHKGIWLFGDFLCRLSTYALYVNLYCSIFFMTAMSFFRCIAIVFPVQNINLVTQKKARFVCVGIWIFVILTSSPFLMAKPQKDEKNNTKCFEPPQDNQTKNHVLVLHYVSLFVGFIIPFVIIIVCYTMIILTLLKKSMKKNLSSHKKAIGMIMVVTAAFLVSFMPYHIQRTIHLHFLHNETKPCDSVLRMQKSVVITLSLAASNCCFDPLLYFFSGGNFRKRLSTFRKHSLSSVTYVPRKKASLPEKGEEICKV

[3] = biological target: Histamine H2 receptor (Homo sapiens, UniProt P25021); assay type: cell membranes, CHO-K1, Membrane; details: for Ki: read-out: Ki
[4] = biological target: T2, Calcitonin receptor (Homo sapiens, UniProt P30988); assay type: cell membranes, Membrane; details: t47d
T2 sequence (P30988 whole entry): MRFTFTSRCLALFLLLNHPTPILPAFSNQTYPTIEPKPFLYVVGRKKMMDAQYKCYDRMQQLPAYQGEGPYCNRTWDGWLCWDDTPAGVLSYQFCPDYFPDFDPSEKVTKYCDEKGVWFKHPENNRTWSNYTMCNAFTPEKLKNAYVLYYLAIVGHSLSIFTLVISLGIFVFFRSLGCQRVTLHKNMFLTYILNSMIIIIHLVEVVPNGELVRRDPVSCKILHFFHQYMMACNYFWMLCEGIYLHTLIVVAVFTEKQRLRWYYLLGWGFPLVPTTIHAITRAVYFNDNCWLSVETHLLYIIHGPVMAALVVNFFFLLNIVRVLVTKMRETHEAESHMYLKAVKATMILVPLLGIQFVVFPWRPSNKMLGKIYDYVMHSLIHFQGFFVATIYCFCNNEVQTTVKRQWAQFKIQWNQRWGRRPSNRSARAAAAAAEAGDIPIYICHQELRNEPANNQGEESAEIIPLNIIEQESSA

[5] = biological target: T3, Leukotriene C4 synthase (Cavia porcellus, UniProt A6XA80); assay type: tissue-based, Lung;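 note: enzyme inhibition assay of leukotriene C4 synthase, using LTA4 as the substrate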
T3 sequence (A6XA80 whole entry): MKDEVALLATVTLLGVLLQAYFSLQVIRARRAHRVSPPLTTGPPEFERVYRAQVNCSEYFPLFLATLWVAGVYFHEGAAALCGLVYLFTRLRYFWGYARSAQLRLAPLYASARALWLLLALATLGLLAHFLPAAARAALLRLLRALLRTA

[6] = biological target: T4, Neuropeptide Y receptor type 1 (Homo sapiens, UniProt P25929); assay type: cell membranes, Membrane; details: sk-n-mc
T4 sequence (P25929 whole entry): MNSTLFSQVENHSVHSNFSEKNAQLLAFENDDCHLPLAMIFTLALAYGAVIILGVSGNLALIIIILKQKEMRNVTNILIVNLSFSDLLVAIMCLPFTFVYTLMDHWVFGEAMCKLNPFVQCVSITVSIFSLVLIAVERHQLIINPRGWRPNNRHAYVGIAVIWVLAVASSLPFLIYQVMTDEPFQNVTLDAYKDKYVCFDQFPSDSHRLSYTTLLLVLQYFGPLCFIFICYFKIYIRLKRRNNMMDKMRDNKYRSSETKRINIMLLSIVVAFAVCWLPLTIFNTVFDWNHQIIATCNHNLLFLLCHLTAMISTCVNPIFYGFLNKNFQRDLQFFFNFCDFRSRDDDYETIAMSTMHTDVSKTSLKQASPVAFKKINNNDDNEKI

[7] = biological target: T5, Polyunsaturated fatty acid lipoxygenase ALOX15 (Oryctolagus cuniculus, UniProt P12530); test: biochemical; assay type: tissue-based, Reticulocytes; details: reticulocytes;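 note: inhibition of 15-lipoxygenase enzyme activity measured with linoleic acid as the substrate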
T5 sequence (P12530 whole entry): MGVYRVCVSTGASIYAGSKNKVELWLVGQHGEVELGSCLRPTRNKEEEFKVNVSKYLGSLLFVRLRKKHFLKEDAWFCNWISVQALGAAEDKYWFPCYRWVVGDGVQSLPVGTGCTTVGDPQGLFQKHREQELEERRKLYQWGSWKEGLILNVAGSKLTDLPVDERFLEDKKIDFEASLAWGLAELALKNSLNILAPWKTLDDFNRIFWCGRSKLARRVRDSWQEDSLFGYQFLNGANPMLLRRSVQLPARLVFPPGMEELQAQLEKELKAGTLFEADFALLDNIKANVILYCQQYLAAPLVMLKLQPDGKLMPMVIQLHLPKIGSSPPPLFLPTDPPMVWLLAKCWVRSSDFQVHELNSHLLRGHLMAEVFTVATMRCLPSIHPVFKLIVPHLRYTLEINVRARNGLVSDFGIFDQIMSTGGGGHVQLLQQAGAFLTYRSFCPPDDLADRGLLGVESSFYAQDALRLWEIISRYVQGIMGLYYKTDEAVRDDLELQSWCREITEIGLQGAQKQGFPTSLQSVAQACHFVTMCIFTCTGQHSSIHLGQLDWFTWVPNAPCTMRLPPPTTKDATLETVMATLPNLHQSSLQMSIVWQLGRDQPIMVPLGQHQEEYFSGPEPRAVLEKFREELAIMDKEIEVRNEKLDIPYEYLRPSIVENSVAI

[8] = biological target: T6, Interstitial collagenase (Homo sapiens, UniProt P03956); test: biochemical; assay type: tissue-based, Rheumatoid synovial fibroblasts;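 note: MMP-1 enzyme inhibition assay using a peptide substrate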
T6 sequence (P03956 whole entry): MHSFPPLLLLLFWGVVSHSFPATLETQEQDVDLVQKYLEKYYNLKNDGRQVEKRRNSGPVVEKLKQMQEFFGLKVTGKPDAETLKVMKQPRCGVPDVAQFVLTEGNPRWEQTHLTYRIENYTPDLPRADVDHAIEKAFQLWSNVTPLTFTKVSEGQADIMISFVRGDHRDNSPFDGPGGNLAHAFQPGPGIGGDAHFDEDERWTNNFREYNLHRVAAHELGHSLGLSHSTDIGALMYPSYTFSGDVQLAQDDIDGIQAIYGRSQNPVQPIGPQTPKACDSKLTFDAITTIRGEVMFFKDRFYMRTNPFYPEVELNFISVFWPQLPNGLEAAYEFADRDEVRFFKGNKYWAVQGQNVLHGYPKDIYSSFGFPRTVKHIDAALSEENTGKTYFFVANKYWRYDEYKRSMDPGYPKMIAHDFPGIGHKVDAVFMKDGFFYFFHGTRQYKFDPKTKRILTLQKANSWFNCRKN

[9] = biological target: C-C chemokine receptor type 2 (Homo sapiens, UniProt P41597); assay type: cell membranes, Membrane; details: cho-k1
Note: in other assays of this panel Not Active means under 50% inhibition at 10 µM.

Sequence of Cytochrome P450 3A4 (P08684 whole entry): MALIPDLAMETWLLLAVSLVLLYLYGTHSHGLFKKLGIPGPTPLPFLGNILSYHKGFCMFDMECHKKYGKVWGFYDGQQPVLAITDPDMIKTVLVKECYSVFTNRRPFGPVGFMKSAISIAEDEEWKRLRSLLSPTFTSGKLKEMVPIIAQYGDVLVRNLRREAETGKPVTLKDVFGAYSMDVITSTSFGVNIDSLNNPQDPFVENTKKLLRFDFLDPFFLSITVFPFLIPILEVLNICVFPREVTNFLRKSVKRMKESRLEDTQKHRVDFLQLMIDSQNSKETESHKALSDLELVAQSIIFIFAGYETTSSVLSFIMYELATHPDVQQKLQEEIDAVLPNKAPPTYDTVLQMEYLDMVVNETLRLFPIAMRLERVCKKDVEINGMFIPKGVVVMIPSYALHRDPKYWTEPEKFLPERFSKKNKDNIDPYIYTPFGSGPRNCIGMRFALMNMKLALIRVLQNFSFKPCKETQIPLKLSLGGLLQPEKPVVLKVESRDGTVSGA
Sequence of Histamine H2 receptor (P25021 whole entry): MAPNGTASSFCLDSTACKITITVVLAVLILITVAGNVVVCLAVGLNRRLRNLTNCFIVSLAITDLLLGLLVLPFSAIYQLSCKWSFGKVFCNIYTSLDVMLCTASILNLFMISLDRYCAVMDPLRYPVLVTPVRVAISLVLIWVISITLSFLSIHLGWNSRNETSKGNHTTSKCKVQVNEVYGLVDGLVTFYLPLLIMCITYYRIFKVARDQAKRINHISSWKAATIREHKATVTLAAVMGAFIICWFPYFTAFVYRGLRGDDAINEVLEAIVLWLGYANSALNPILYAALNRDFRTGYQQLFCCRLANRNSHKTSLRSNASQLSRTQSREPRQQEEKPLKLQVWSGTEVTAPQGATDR
Sequence of C-C chemokine receptor type 2 (P41597 whole entry): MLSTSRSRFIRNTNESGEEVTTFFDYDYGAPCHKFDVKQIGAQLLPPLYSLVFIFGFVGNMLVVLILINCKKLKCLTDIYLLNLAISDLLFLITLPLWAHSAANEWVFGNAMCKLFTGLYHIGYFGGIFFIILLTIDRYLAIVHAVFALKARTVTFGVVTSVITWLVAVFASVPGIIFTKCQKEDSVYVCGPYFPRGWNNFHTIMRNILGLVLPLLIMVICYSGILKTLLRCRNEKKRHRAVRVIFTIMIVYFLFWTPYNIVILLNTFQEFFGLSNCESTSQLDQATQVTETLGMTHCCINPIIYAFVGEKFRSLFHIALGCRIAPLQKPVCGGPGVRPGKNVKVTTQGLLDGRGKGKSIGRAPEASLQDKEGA

| Structure (SMILES) | IC50 [1] | Ki [1] | IC50 [2] | IC50 ([3]; cho-k1) | IC50 [4] | IC50 [5] | IC50 [6] | IC50 [7] | IC50 [8] | IC50 [9] | IC50 ([3]; read-out: IC50) [µM] | Ki [3] [µM] |
| --- | --- | --- | --- | --- | --- | --- | --- | --- | --- | --- | --- | --- |
| CCCCC(=O)N(Cc1ccc(-c2ccccc2-c2nnn[nH]2)cc1)[C@H](C(=O)O)C(C)C | Not Active | Not Active | Not Active | Not Active | Not Active | Not Active | Not Active | Not Active | Not Active | – | – | – |
| O=C(O)COc1ccc(C(=O)c2cccs2)c(Cl)c1Cl | Not Active | Not Active | Not Active | Not Active | Not Active | Not Active | Not Active | Not Active | Not Active | Not Active | – | – |
| CN1[C@@H]2CC[C@H]1C[C@@H](OC(c1ccccc1)c1ccccc1)C2 [BENZTROPINE] | Not Active | Not Active | Not Active | – | Not Active | Not Active | Not Active | Not Active | Not Active | Not Active | 1.21 | 1.19 |
| C[C@@](Cc1ccc(O)c(O)c1)(NN)C(=O)O.O [CARBIDOPA] | Not Active | Not Active | Not Active | Not Active | Not Active | Not Active | Not Active | Not Active | Not Active | Not Active | – | – |
| CN1CCN(C2=Nc3cc(Cl)ccc3Nc3ccccc32)CC1 [CLOZAPINE] | – | – | Not Active | – | Not Active | Not Active | Not Active | Not Active | Not Active | Not Active | […] | […] |
| CC(C)NC[C@@H](O)COc1cccc2ccccc12 [DEXPROPRANOLOL] | Not Active | Not Active | Not Active | Not Active | Not Active | Not Active | Not Active | Not Active | Not Active | Not Active | – | – |
| CC(C)NC[C@H](O)COc1cccc2ccccc12 [LEVOPROPRANOLOL] | Not Active | Not Active | Not Active | Not Active | Not Active | Not Active | Not Active | Not Active | Not Active | Not Active | – | – |
| O=C(O)CCCCC1CCSS1 (stereo not drawn) [LIPOIC ACID, ALPHA] | Not Active | Not Active | Not Active | Not Active | Not Active | Not Active | Not Active | Not Active | Not Active | Not Active | – | – |
| CN(C)C(=O)C(CCN1CCC(O)(c2ccc(Cl)cc2)CC1)(c1ccccc1)c1ccccc1 [LOPERAMIDE] | Not Active | Not Active | Not Active | – | Not Active | Not Active | Not Active | Not Active | Not Active | Not Active | 3.08 | 3.03 |
| Clc1ccc(COC(Cn2ccnc2)c2ccc(Cl)cc2Cl)c(Cl)c1 (stereo not drawn) [MICONAZOLE] | – | – | Not Active | – | Not Active | Not Active | Not Active | Not Active | Not Active | Not Active | 6.75 | 6.64 |
| Oc1ccc2c3c1O[C@H]1[C@@H](O)CC[C@@]4(O)[C@@H](C2)N(CC2CCC2)CC[C@]314 [NALBUPHINE] | – | – | Not Active | Not Active | Not Active | Not Active | Not Active | Not Active | Not Active | Not Active | – | – |
| C[C@]12C=CC(=O)C=C1CC[C@@H]1[C@@H]2C(=O)C[C@@]2(C)[C@H]1CC[C@]2(O)C(=O)CO [PREDNISONE] | – | – | Not Active | Not Active | Not Active | Not Active | Not Active | Not Active | Not Active | Not Active | – | – |
| OCCOCCN1CCN(C2=Nc3ccccc3Sc3ccccc32)CC1 [QUETIAPINE] | Not Active | Not Active | Not Active | Not Active | Not Active | Not Active | Not Active | Not Active | Not Active | Not Active | – | – |
| COC(=O)[C@H]1[C@H]2C[C@@H]3c4[nH]c5cc(OC)ccc5c4CCN3C[C@H]2C[C@@H](OC(=O)c2cc(OC)c(OC)c(OC)c2)[C@@H]1OC [RESERPINE] | Not Active | Not Active | Not Active | Not Active | Not Active | Not Active | Not Active | Not Active | Not Active | Not Active | – | – |
| O=C(O)c1ccccc1O [SALICYLIC ACID] | Not Active | Not Active | Not Active | Not Active | Not Active | Not Active | Not Active | Not Active | Not Active | Not Active | – | – |
| C[S+]([O-])c1ccc(-c2nc(-c3ccncc3)c(-c3ccc(F)cc3)[nH]2)cc1 (stereo not drawn) [SB-203580] | Not Active | Not Active | Not Active | Not Active | Not Active | Not Active | Not Active | Not Active | Not Active | Not Active | – | – |
| CN1CCN(CCCN2c3ccccc3Sc3ccc(C(F)(F)F)cc32)CC1 [TRIFLUOPERAZINE] | – | – | Not Active | Not Active | Not Active | Not Active | Not Active | Not Active | Not Active | Not Active | – | – |
